Results as given in ChEMBL document CHEMBL3853342, “Design, synthesis and biological evaluation of novel benzo-α-pyrone containing piperazine derivatives as potential BRAFV600E inhibitors” (Bioorg Med Chem Lett, 2016).

Assays:
[1] = Cytotoxicity against human 293T cells assessed as cell growth inhibition after 24 hrs by MTT assay; assay type: toxicity, cell-based, HEK-293T
[2] = Antiproliferative activity against human A375 cells assessed as cell growth inhibition after 24 hrs by MTT assay; assay type: functional, cell-based; conditions: A-375, 24 h
[3] = Antiproliferative activity against human WM1361 cells assessed as cell growth inhibition after 24 hrs by MTT assay; assay type: functional, cell-based; conditions: WM1361, 24 h
[4] = biological target: Serine/threonine-protein kinase B-raf (Homo sapiens, UniProt P15056, V600E); assay: Inhibition of human recombinant GST-tagged BRAF catalytic domain (416 to 766 residues) V600E mutant expressed in baculovirus expression system preincubated for 1 hr followed by human full length recombinant N-terminal His-tagged MEK1 substrate addition measured after 25 mins by gel electrophoresis method
[5] = Antiproliferative activity against human WM266.4 cells harboring BRAF V600E mutant assessed as cell growth inhibition after 24 hrs by MTT assay; assay type: functional, cell-based; conditions: WM 266-4, 24 h

Sequence of Serine/threonine-protein kinase B-raf (P15056 2-766 V600E limits assumed): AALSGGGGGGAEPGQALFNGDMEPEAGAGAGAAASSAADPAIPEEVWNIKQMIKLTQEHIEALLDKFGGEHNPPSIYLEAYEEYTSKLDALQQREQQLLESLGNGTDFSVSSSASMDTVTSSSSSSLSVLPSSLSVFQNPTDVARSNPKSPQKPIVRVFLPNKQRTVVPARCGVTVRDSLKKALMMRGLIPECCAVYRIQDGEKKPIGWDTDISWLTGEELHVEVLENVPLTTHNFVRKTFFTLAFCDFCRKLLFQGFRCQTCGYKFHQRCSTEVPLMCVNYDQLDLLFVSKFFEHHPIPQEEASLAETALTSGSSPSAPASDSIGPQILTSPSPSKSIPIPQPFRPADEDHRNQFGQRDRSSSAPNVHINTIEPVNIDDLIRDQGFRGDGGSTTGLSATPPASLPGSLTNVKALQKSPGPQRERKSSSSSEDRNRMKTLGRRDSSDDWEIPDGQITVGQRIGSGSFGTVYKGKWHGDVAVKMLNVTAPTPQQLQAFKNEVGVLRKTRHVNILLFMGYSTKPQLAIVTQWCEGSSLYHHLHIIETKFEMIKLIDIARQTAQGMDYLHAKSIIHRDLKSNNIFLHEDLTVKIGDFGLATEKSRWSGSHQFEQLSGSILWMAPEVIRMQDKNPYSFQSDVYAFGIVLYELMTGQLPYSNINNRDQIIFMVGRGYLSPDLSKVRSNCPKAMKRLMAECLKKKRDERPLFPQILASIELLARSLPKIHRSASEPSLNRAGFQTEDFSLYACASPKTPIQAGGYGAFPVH

Compound | CC50 at 24 h [1] | IC50 [2] | IC50 [3] | IC50 [4] | IC50 [5]
COc1ccccc1N1CCN(c2c(CO)c(=O)oc3ccccc23)CC1 | > 50 µM | 20 µM | > 50 µM | 10.1 µM | 18.3 µM
O=c1oc2ccccc2c(N2CCN(c3cccc(C(F)(F)F)c3)CC2)c1CO | > 50 µM | 31.9 µM | > 50 µM | 24.2 µM | 30 µM
O=c1oc2ccccc2c(N2CCN(C(c3ccccc3)c3ccc(Cl)cc3)CC2)c1CO (stereo not given) | > 50 µM | 3.89 µM | 30.2 µM | 0.92 µM | 2.74 µM
